Results reported in patent EP0425840A2, “Use of methenamine in the treatment of viral diseases and malign neoplasies” (Jaeger, Karl-Heinz, Dr. med., priority 1989, dated 1991).
Read-outs that look alike come from different tables or passages of the source.

Key:
[1] = test system: L 5178 Y Maus-Lyphom Zellen; test: Nucleus size after cell lysis and propidium iodide staining (impulse cytophotometer); type: cell-based
Text: (§1) HMT wurde zu den Kulturen in verschiedenen Konzentrationen während einer Zeitspanne von 24 Std. zugegeben. Die Populationen und das Zellvolumen wurden mit einem Zytokombgerät (System Michaelis, Mainz) entsprechend dem Coulter Counter-Prinzip bestimmt. Nach der Zellolyse mit 35 mmol/l Natriumzitrat und 0,5% Triton X 100 (Herstellerin Sigma Chemie, München), RNAse Behandlung und […] mit Propidiumjodid wurde die Kerngröße mit Hilfe eines Impulszytofotometers (FACS analizer) Firma Becton and Dickinson) gemessen.
Die Zellkulturen wurden wie unter Beispiel 1 beschrieben behandelt. Bei der Bewertung der Nucleusgröße wurde als Kontrolle die Verteilung der Kerngröße bei unbehandelten Zellen zugrunde gelegt.

[2] = test system: L 5178 Y Maus-Lyphom Zellen; test: Inhibition of cell growth in L 5178 Y cell culture (Coulter counter principle); type: cell-based
Text: as §1, with “Die L 5178 Y Maus-Lyphom Zellen wurden in einem MEM-Spinner Medium mit 10 mmol/l HEPES Puffer, 10% fötalem Kalbserum und 100.000 Einheiten/l Penicillin/Steptomycin (Herstellerin Biocrom, Berlin) kultiviert. Bei Kultivierungsstart lagen 100.000 Zellen/ml Kulturmedium vor, wobei sich 60% der Zellen in der S-Phase befanden. HMT” for “HMT”

[3] = test system: L 5178 Y Maus-Lyphom Zellen; test: Change of cell volume in L 5178 Y cell culture (Coulter counter principle); type: cell-based
Text: as §1, with “Die L 5178 Y Maus-Lyphom Zellen wurden in einem MEM-Spinner Medium mit 10 mmol/l HEPES Puffer, 10% fötalem Kalbserum und 100.000 Einheiten/l Penicillin/Steptomycin (Herstellerin Biocrom, Berlin) kultiviert. Bei Kultivierungsstart lagen 100.000 Zellen/ml Kulturmedium vor, wobei sich 60% der Zellen in der S-Phase befanden. HMT” for “HMT”

DNA-Polymerasen = test: Activity of DNA polymerases in the cell nucleus; type: cell-based; settings: no method or concentration given
reversen Transkriptase = test: Activity of reverse transcriptase in the cell nucleus; type: cell-based; settings: no method or concentration given
[4] = cited from earlier work

N.N.[Cl][Pt][Cl] [Cisplatin]
Anzahl der Kerne mit reduzierter Nucleusgröße (%) ([1]; Cisplatin 0,5 x 10⁻⁵ g/ml Kulturvolumen): 43,51±5,62% | Anzahl der Kerne mit reduzierter Nucleusgröße (%) ([1]; Cisplatin 0,5 x 10⁻⁶ g/ml Kulturvolumen): 6,97±2,81% | Anzahl der Kerne mit reduzierter Nucleusgröße (%) ([1]; Cisplatin 1,0 x 10⁻⁶ g/ml Kulturvolumen): 9,95±3,13% | Anzahl der Kerne mit reduzierter Nucleusgröße (%) ([1]; Cisplatin 1,0 x 10⁻⁷ g/ml Kulturvolumen): 4,07±2,24% | Anzahl der Kerne mit reduzierter Nucleusgröße (%) ([1]; Cisplatin 2,0 x 10⁻⁶ g/ml Kulturvolumen): 18,62±4,08%

C1N2CN3CN1CN(C2)C3 [HMT, Methenamine]
activity at 100 µg/mL ([2]; Mus musculus, L5178Y, 24 h, 0,1 mg HMT/ml Kulturvolumen, 24 Std., Kontrolle = 100, read-out: Zellwachstum (%)): 8% | activity at 20 µg/mL ([2]; Mus musculus, L5178Y, 24 h, 0,02 mg HMT/ml Kulturvolumen, 24 Std., Kontrolle = 100, read-out: Zellwachstum (%)): 61% | activity at 200 µg/mL ([2]; Mus musculus, L5178Y, 24 h, 0,2 mg HMT/ml Kulturvolumen, 24 Std., Kontrolle = 100, read-out: Zellwachstum (%)): 6% | activity at 50 µg/mL ([2]; Mus musculus, L5178Y, 24 h, 0,05 mg HMT/ml Kulturvolumen, 24 Std., Kontrolle = 100, read-out: Zellwachstum (%)): 35% | Zellwachstum ([2]; from a concentration of 1 x 10⁻³ mg/ml HMT downwards): nicht mehr statistisch signifikant beeinflußt | Zellvolumen (µm³) ([3]; 0,1 mg HMT/ml Kulturvolumen, Zellfragmente, Mittelwert): 339,06 µm³ | Zellvolumen (µm³) ([3]; 0,2 mg HMT/ml Kulturvolumen, Zellfragmente, Mittelwert): 323,75 µm³ | Zellvolumen (µm³) ([3]; 1 x 10⁻² mg HMT/ml Kulturvolumen, Kontrolle 1470,66±390,71): 1540,82±401,32 µm³ | Zellvolumen (µm³) ([3]; 1 x 10⁻³ mg HMT/ml Kulturvolumen, Kontrolle 1470,66±390,71): 1422,27±398,09 µm³ | Zellvolumen (µm³) ([3]; 2 x 10⁻² mg HMT/ml Kulturvolumen, Kontrolle 1470,66±390,71): 1718,16±487,10 µm³ | Zellvolumen (µm³) ([3]; 2 x 10⁻³ mg HMT/ml Kulturvolumen, Kontrolle 1470,66±390,71): 1479,35±387,79 µm³ | Zellvolumen (µm³) ([3]; 2 x 10⁻¹² mg HMT/ml Kulturvolumen, Kontrolle 1470,66±390,71): 1411,23±395,92 µm³ | Zellvolumen (µm³) ([3]; 2 x 10⁻¹¹ mg HMT/ml Kulturvolumen, Kontrolle 1470,66±390,71): 1484,77±412,43 µm³ | Zellvolumen (µm³) ([3]; 2 x 10⁻⁴ mg HMT/ml Kulturvolumen, Kontrolle 1470,66±390,71): 1365,68±371,21 µm³ | Zellvolumen (µm³) ([3]; 2 x 10⁻⁵ mg HMT/ml Kulturvolumen, Kontrolle 1470,66±390,71): 1289,92±350,94 µm³ | Zellvolumen (µm³) ([3]; 2 x 10⁻⁶ mg HMT/ml Kulturvolumen, Kontrolle 1470,66±390,71): 1295,17±379,65 µm³ | Zellvolumen (µm³) ([3]; 2 x 10⁻⁷ mg HMT/ml Kulturvolumen, Kontrolle 1470,66±390,71): 1279,94±388,43 µm³ | Zellvolumen (µm³) ([3]; 2 x 10⁻⁸ mg HMT/ml Kulturvolumen, Kontrolle 1470,66±390,71): 1291,81±410,11 µm³ | Zellvolumen (µm³) ([3]; 2 x 10⁻⁹ mg HMT/ml Kulturvolumen, Kontrolle 1470,66±390,71): 1292,70±398,55 µm³ | Zellvolumen (µm³) ([3]; 5 x 10⁻² mg HMT/ml Kulturvolumen, Kontrolle 1470,66±390,71): 1736,76±438,98 µm³ | Zellvolumen ([3]; between 10⁻⁴ - 10⁻¹² mg/ml Kulturvolumen): korrespondiert das Zellvolumen mit dem Zellvolumen der Kontrollen | Anzahl der Kerne mit reduzierter Nucleusgröße (%) ([1]; 0,1 mg HMT/ml Kulturvolumen, kernfragmente): 79,9 (kernfragmente) % | Anzahl der Kerne mit reduzierter Nucleusgröße (%) ([1]; 0,02 mg HMT/ml Kulturvolumen, Kernfragmente): 1,0 (Kernfragmente) % | Anzahl der Kerne mit reduzierter Nucleusgröße (%) ([1]; 0,2 mg HMT/ml Kulturvolumen, Kernfragmente): 81,3 (Kernfragmente) % | Anzahl der Kerne mit reduzierter Nucleusgröße (%) ([1]; 0,05 mg HMT/ml Kulturvolumen, Kernfragmente): 25,1 (Kernfragmente) % | Anzahl der Kerne mit reduzierter Nucleusgröße (%) ([1]; 2 x 10⁻² mg HMT/ml Kulturvolumen): 6,05+2,07% | Anzahl der Kerne mit reduzierter Nucleusgröße (%) ([1]; 2 x 10⁻³ mg HMT/ml Kulturvolumen): 19,62±3,89% | Anzahl der Kerne mit reduzierter Nucleusgröße (%) ([1]; 2 x 10⁻¹² mg HMT/ml Kulturvolumen): 25,77±4,29% | Anzahl der Kerne mit reduzierter Nucleusgröße (%) ([1]; 2 x 10⁻¹¹ mg HMT/ml Kulturvolumen): 27,17±4,13% | Anzahl der Kerne mit reduzierter Nucleusgröße (%) ([1]; 2 x 10⁻⁴ mg HMT/ml Kulturvolumen): 13,41±3,71% | Anzahl der Kerne mit reduzierter Nucleusgröße (%) ([1]; 2 x 10⁻⁵ mg HMT/ml Kulturvolumen): 11,14±3,60% | Anzahl der Kerne mit reduzierter Nucleusgröße (%) ([1]; 2 x 10⁻⁶ mg HMT/ml Kulturvolumen): 4,50±2,92% | Anzahl der Kerne mit reduzierter Nucleusgröße (%) ([1]; 2 x 10⁻⁷ mg HMT/ml Kulturvolumen): 1,11±0,58% | Anzahl der Kerne mit reduzierter Nucleusgröße (%) ([1]; 2 x 10⁻⁸ mg HMT/ml Kulturvolumen): 20,86±4,07% | Anzahl der Kerne mit reduzierter Nucleusgröße (%) ([1]; 5 x 10⁻² mg HMT/ml Kulturvolumen): 4,87±91,93% | Kerne größenreduziert im Vergleich zu den Kontrollen ([1]; range of normal cell volume, 10⁻⁴- 10⁻¹² mg HMT/ml Kulturvolumen): 25% | Aktivitäten der DNA-Polymerasen im Zellkern (DNA-Polymerasen): beeinträchtigt | Aktivitäten der reversen Transkriptase im Zellkern (reversen Transkriptase): beeinträchtigt | dissoziiert in Formaldehyd und Ammoniumionen ([4]; pH 5): 20% | dissoziiert in Formaldehyd und Ammoniumionen ([4]; pH 6): 6%
